Experimental findings from a melting point compilation (Tetko et al.; mined from patent text by program, amines drawn as free bases though some values may be those of a salt) are described below.

Some results are limits rather than exact numbers.

One may read the melting point as the temperature of the solid-liquid transition. `CC(C=[N+]([O-])C(C)(C)C)c1ccccc1` (configuration not stated) showed a melting point of 56 °C.

In turn, `O=C1c2ccccc2C(=O)c2sc(-c3ccoc3)nc21` gave a melting point of 245 °C.

Consider `Cc1cc(C#N)cc(C)c1OCCCC1=NNC(=O)CC1`, for which the melting point is 124 °C.

`COc1ccc(C(=O)c2cccc3c2CCC3C#N)cc1` (configuration not stated): the melting point was 109 to 112 °C.

As to `CCCOC(=O)c1sccc1S(N)(=O)=O`, the melting point came to 79 °C.

As for `CC(c1ccc(C=Cc2ccccc2)s1)N(O)C(N)=O` (configuration not stated), the melting point fell in the range of 160 to 163 °C.

`COc1ccc(Cl)cc1-c1c(N)c(=O)[nH]c2cc(Cl)cc(Cl)c12` registered a melting point of 284 to 287 °C.

In turn, `CN(Cc1cc2c3c(c1)c(=O)c(C(=O)NCc1ccc(F)cc1)cn3CC(=O)N2C)C[C@@H](O)c1ccsc1` gave a melting point of 150 to 152 °C.

The compound `NC(=O)c1ccc(CCBr)cc1` displayed a melting point of 152 to 153 °C.

`Cc1ccccc1NC(=O)c1c(C)nn(C)c1N` registered a melting point of 113 to 115 °C.

The compound `CCOC(=O)NC(=O)n1sc(OCC)nc1=O` registered a melting point of 119 °C.

Take `CN1CCC(c2cn(S(=O)(=O)c3c(F)cccc3F)c3ccc(OS(=O)(=O)c4c(F)cccc4F)cc23)CC1`: the melting point was 95 to 98 °C.

On to `CN1CCN(c2cccc3c2C[C@H](NC(=O)c2ccc(C(F)(F)F)cc2)CC3)CC1`, for which the melting point was 203 to 204 °C.

`COc1cc2c(cc1O)C(C1(c3ccccc3Br)CCC1)N(C)CC2` (configuration not stated) gave a melting point of 48 to 51 °C.

In turn, `COC(=O)c1nc2cc(Cl)c(Cl)c(Cl)c2c(O)c1C(=O)OC` returned a melting point of 227 to 228 °C.

As to `CCOC(=O)C1(CCCN(C)C)CCCCC1(O)c1ccccc1` (configuration not stated), the melting point is 97 to 99 °C.

`C=CCOc1ccccc1OCCOS(C)(=O)=O` gave a melting point of 61 to 63 °C.

In turn, `Cc1cc(Nc2ncnc3ccn(CCNC(=O)CS(C)(=O)=O)c23)ccc1Oc1cccc(OC(F)(F)F)c1` showed a melting point of 106 to 108 °C.

Turning to `O=C(Nc1ccc2[nH]c(=O)oc2c1)C(=O)N1CCC(Cc2ccc(F)cc2F)CC1`, the melting point was determined as 191 °C.

For `CN(C)C1(c2ccccc2)CCC(=CC(=O)NCCCCCc2c[nH]c3ccccc23)CC1` (configuration not stated), the melting point lay in the range of 68 to 72 °C.

`O=C(O)CC1(CCCCCCCCCCCC2(C(=O)O)CC2)CC1` registered a melting point of 75.3 to 78.9 °C.

In turn, `CCCCCCCCCC(C)(C)c1cc(C(=O)O)ccc1OC` returned a melting point of 112 °C.

On to `CC1=NN(C(=O)NS(=O)(=O)c2ncccc2C(F)(F)F)C(C)(c2ccccc2)C1` (configuration not stated), for which the melting point was 152 to 153 °C.

Turning to `O=C(O)c1ccc2c(=O)c3cc(C(=O)O)ccc3oc2c1`, the melting point is above 400 °C.

`O=C(O)C1CN(Cc2ccccc2)CCN1Cc1ccccc1` (configuration not stated) came in with a melting point of 184 to 185 °C.

`CCCCCCCCCC1C=CC(Oc2ccc(C(=O)O)o2)=C2N=C3CCCCC3=C21` (configuration not stated) showed a melting point of 130 to 132 °C.

As to `CC(O)c1ccccc1-c1ccc(C(=O)N2Cc3ccc(C(=O)NCc4cccnc4)n3Cc3ccccc32)cc1` (single isomer, unassigned; (-)), the melting point came out at 118 °C.

For the compound `Cc1cc(C)cc(C(=O)c2c(-c3ccc(OCCN(C)C)cc3)oc3ccccc23)c1`, the melting point fell in the range of 132 to 135 °C.

Regarding `COc1ccc(C(=O)Nc2ccccc2)cc1NS(=O)(=O)c1ccc(F)cc1`, the melting point fell in the range of 209 to 211 °C.

As to `CCOc1nc2cc(Cl)c(Cl)cc2nc1N`, the melting point was 191 to 193 °C.

Compound `CC(O)=C1C(=O)CC(c2ccccc2Cl)CC1=O` (configuration not stated) returned a melting point of 100 to 101 °C.

`CC(C)n1cnc2c(Cl)nc(I)nc21`: the melting point amounted to 104 °C.

Consider `c1ccc([C@H]2CC[C@@H](Oc3ncnc4c3CCCC4)CC2)cc1`, for which the melting point was 109 °C.

For `CNC(=S)Nc1cc(F)ccc1N1CCOCC1`, the melting point was 145 to 148 °C.

As for `O=C(O)c1cc(SCc2ccsc2)c(-c2ccccc2)c([N+](=O)[O-])c1`, the melting point lay in the range of 159 to 161 °C.

`O=C(O)c1cn(C2CC2)c2cc(F)c(F)cc2c1=O` displayed a melting point of 288 to 290 °C.

With `COc1ccc(SCn2cc(Cl)cnc2=O)cc1`, the melting point was 140 °C.

Take `Cc1ccc(OC2=NS(=O)(=O)N=C(Oc3ccc(C)cc3)N2C)cc1`: the melting point is 282 to 286 °C.

Regarding `Cc1cc(C)c(C=C(C(=O)O)c2csc(N)n2)c(C)c1`, the melting point was above 200 °C.

The compound `Cc1ccc(-c2ccc(C(=O)Nc3ccc4cc(CN5CCCC5)cnc4c3)cc2)cc1` registered a melting point of 206 to 208 °C.

Regarding `COC(=O)N1c2cc(F)ccc2NC(=O)C1(C)C`, the melting point was 166 to 168 °C.

The compound `C=CCOc1ccc(-c2nc3ccccc3o2)cc1` had a melting point of 95 to 96 °C.

For the compound `COc1ccc2c(c1)C(=O)C(=CCC(=O)OC(C)(C)C)CC2`, the melting point was found to be 76 °C.

Consider `CCCCCCC(=O)c1ccc(OCC(=O)O)c(Cl)c1Cl`, for which the melting point was in the range of 104 to 105 °C.

`COCCC(=O)N[C@H]1CC[C@H](CCN2CCN(c3nccc4ccoc34)CC2)CC1` came in with a melting point of 146 °C.

For `COc1ccc(-c2ccccn2)c(NC(=O)CC(C)N)c1` (configuration not stated), the melting point lay within 185 to 188 °C.

`Cn1nc(COc2ccc(CCCC#N)cc2)nc1-c1ccccc1` returned a melting point of 106 to 107 °C.

`Cc1nc2ccc3ccc(CNc4ccc5c(c4)CN([C@@H](CCC(=O)O)C(=O)N[C@@H](Cc4ccccc4)C(=O)O)C5=O)cc3c2c(=O)[nH]1` yielded a melting point of 180 °C.

With `CCOC(=O)n1nc(S(=O)(=O)Nc2c(Cl)cccc2Cl)nc1NC`, the melting point is 202 to 203 °C.

Turning to `CCOC(=O)CC(=O)Nc1ccc(NC(=O)CC(=O)OCC)c([N+](=O)[O-])c1`, the melting point was 96 to 97 °C.

Compound `CN(Sc1ccccc1[N+](=O)[O-])C(=O)Nc1ccc(Cl)cc1` returned a melting point of 157 to 158 °C.

Regarding `Cc1oc(-c2ccco2)nc1CCOc1ccc([N+](=O)[O-])cn1`, the melting point was in the range of 120 to 122 °C.

`Nc1ccccc1-c1cc2[nH]c3ccccc3c2c2c1C(=O)NC2=O` returned a melting point above 300 °C.

In turn, `CCOC(=O)c1cnc2c(cnn2CC)c1Nc1ccccc1N` displayed a melting point of 126 to 128 °C.

Take `N#Cc1cc(F)cc(C#N)c1`: the melting point fell in the range of 98 to 100 °C.

Regarding `N#CCCNC(=O)c1cccc(-c2cccc(Oc3ccc4[nH]ccc4c3)n2)c1`, the melting point lay within 150 to 151 °C.

`CN(CCOc1ccc(CCCC2OC(=O)NC2=O)cc1)c1ccccn1` (configuration not stated) registered a melting point of 126 to 127 °C.

Compound `OCC1CC(n2c(N3CCC3)nc3cc(Cl)c(Cl)cc32)C(O)C1O` (configuration not stated) yielded a melting point of 221 to 222 °C.

In turn, `CCOC(=O)C(=C(NC)NCc1ccc(Cl)nc1)[N+](=O)[O-]` had a melting point of 231 to 233 °C.

In turn, `Nc1ccc([N+](=O)[O-])cc1C(=O)c1ccccc1Cl` came in with a melting point of 138 to 139 °C.

`Oc1ccc2c(c1O)OCC(c1cccc(Cl)c1)C2` (configuration not stated) had a melting point of 99 to 101 °C.

Regarding `COc1ccc(-c2cc(C(=O)Nc3cccc(F)n3)c3ccccc3n2)cc1OC`, the melting point fell in the range of 225 to 226 °C.

`CCCOC(=O)C1=C(C)N(C)C(C)=C(C(=O)OCCC)C1c1ccc(Br)cc1`: the melting point fell in the range of 97 to 99 °C.

Compound `CSc1nc(SC)c2ccccc2n1` gave a melting point of 85 °C.

As to `O=C(NCCCl)NC1OC(CO)C(O)C1O` (configuration not stated), the melting point lay within 166 to 168 °C.

Compound `CCCN(c1ccncc1)n1ccc2cc(OC(=O)NCc3ccccc3)ccc21` gave a melting point of 156 to 158 °C.

`Fc1cc(Cn2ccnc2)cc2c1Cc1c(-c3ccsc3)n[nH]c1-2` came in with a melting point of 274 to 276 °C.

In turn, `C=CCOc1ccc2cn[nH]c2c1` had a melting point of 110 to 112 °C.

On to `O=C(O)CNC(=O)CN1CCCC1=O`, for which the melting point was in the range of 149 to 150 °C.

Compound `CCCCOC(=O)NCc1cccc(C(=O)C=CN(C)C)c1` gave a melting point of 80 to 82 °C.

In the case of `COc1cc(C(=O)C(C#N)C#N)cc(OC)c1OC`, the melting point lay in the range of 158 to 160 °C.

For `CCOc1ccccc1COc1ccc2c(c1)C=C(C(=O)O)CCS2(=O)=O`, the melting point is 158 to 160 °C.

`CC(C)C[C@H](NC(=O)C(CS)C(F)(F)F)C(=O)O` (some centres not stated): the melting point lay in the range of 132 to 134 °C.

For the compound `CC(C)NNC(=O)c1ccc(Cl)c(Cl)c1`, the melting point fell in the range of 112 to 115 °C.

The compound `CS(=O)(=O)c1ccc(-c2cnn(-c3ccc(F)cc3)c(=O)c2N2CCCC2)cc1` registered a melting point of 192 to 195 °C.

On to `Cc1cc(N2CCNC(=O)N2)cc(Cl)c1SCc1ccc(Cl)cc1`, for which the melting point was in the range of 165 to 167 °C.

The compound `CCCc1c(OCCCCCC(=O)NCCSc2ccncc2)ccc(C(C)=O)c1O` showed a melting point of 63 to 65 °C.

`CC(C)c1ccc2nc3ccc(C(=O)O)cc3c(=O)n2c1`: the melting point is 312 to 316 °C.

For the compound `COC(=O)c1ccc(OC)c2c1OCCCO2`, the melting point amounted to 212 °C.

`COC(=O)c1cc(F)c(F)c2ccc(C)nc12` gave a melting point of 99 to 101 °C.

In turn, `CCCn1cc(-c2ccccc2)c(=O)c(-c2ccccc2)n1` registered a melting point of 94 to 96 °C.

With `C=CCOC1CC2C3CCC4=CC(=O)CCC4(C)C3(F)C(O)CC2(C)C1(O)C(=O)CCl` (configuration not stated), the melting point fell in the range of 224 to 225 °C.

For `COC(=O)C1=C2Nc3ccccc3C23CCNC3CC1` (configuration not stated), the melting point was in the range of 145 to 148 °C.

For the compound `COc1cc2cc(-c3ccccc3F)sc2c(Cl)c1Cl`, the melting point fell in the range of 143 to 144 °C.

As for `CCC(C)CNC(=O)c1cc(NC)cc(C(=O)NCC(C)CC)c1` (configuration not stated), the melting point fell in the range of 160 to 161 °C.

As for `Cc1ccc(S(=O)(=O)NC(=O)N2CCN(C(=O)c3ccc(Nc4ccnc5cc(C(F)(F)F)ccc45)cc3)CC2)cc1`, the melting point lay in the range of 253 to 255 °C.

`CCOC(=O)c1ccc(-c2c(Cl)c(CCl)nc3sc4c(c23)CCN(C(=O)OCc2ccccc2)C4)cc1` gave a melting point of 123 to 124 °C.

Compound `Cc1ccc2c(c1)Nc1ncccc1NC2=O` had a melting point of 286 to 288 °C.

For `O=C(CBr)c1ccc(OCC(=O)N2CCOCC2)cc1`, the melting point is 105 to 107 °C.

`COc1ccc2nc3c([N+](=O)[O-])ccc(Cl)c3c(Cl)c2c1` returned a melting point of 243 to 246 °C.

`COc1ccc2c(c1)c1c3c(ccc1n2C)C(=O)N(CCN(C)C)C3=O`: the melting point was 137 to 138 °C.

As for `CCCn1c(=O)c2c(nc(C=Cc3ccc(C(=O)O)cc3OC)n2C)n(CCC)c1=O`, the melting point was 285 to 286 °C.
